This is an account of results in paper PMC11173194, “Optimizing Antimicrobial Peptide Design: Integration of Cell-Penetrating Peptides, Amyloidogenic Fragments, and Amino Acid Residue Modifications” (International Journal of Molecular Sciences, 2024).

For data set [1], the system named is P. aeruginosa 2943 strain. Briefly: Antibacterial activity in liquid medium. In kind it is cell-based, Pseudomonas aeruginosa. The settings on record: for antimicrobial effect compared to the negative control (Figure 3): P. aeruginosa 2943, liquid medium, 24 h; for Peptide Efficacy in Liquid Medium after 24 h of Incubation: P. aeruginosa 2943 strain (resistant), Mueller–Hinton Broth, two independent experiments. As to the method:
(§1) We utilized various strains of microorganisms in this study. […] Bacillus cereus strain IP 5832 (susceptible), Pseudomonas aeruginosa strains ATCC 28753 (susceptible) and 2943 (resistant), and Escherichia coli strains K12 and MG1655 (both susceptible) were also utilized in our experiments.
(§2) S. aureus (strains 209P and 129B), MRSA (strains ATCC 43300 and SA 180-F), B. cereus (strain IP 5832), P. aeruginosa (strains ATCC 28753 and 2943), and E. coli (strains K12 and MG1655) were cultured on Mueller–Hinton Broth (MHB).
(§3) Statistical analysis was conducted using the SigmaPlot v15 software package (SPSS Inc., Chicago, IL, USA). Each experiment was repeated at least twice (n ≥ 2). Data are presented as mean ± standard deviation (M ± SD). Statistical significance was assessed using Student’s t-test and analysis of variance (ANOVA) in the tests of the antibacterial activity of the peptides. The confidence interval value of 0.95 was used, corresponding to an alpha value of 0.05. Statistically significant decreases in optical density compared to the negative control were considered for specific peptide concentrations with p-values below 0.05.

The subject of the next data set is P. aeruginosa ATCC 28753. The data set is described as follows: Antibacterial activity in liquid medium. Format: cell-based, Pseudomonas aeruginosa. Particulars: for Peptide Efficacy in Liquid Medium after 15 h of Incubation: Mueller–Hinton Broth, two independent experiments; for concentrations of peptides suppressing the growth of bacteria compared to the negative control (Figure 3): liquid medium, 15 h. As to the method: as §1, §2, §3

The test system of another data set is human skin fibroblasts. The data set is described as follows: Toxicity of peptides against human fibroblasts (calcein AM / propidium iodide; cell cycle). In kind it is cell-based. The settings on record: both with and without pre-incubation, 96 h; for number of dead cells: calcein AM / propidium iodide.
In the next data set the test system is E. coli MG1655 strain. The data set is described as follows: Antibacterial activity in liquid medium. The settings on record: for concentration with antimicrobial activity / effective concentration (text to Figure 4): E. coli MG1655, liquid medium, 24 h; for Peptide Efficacy in Liquid Medium after 24 h of Incubation: E. coli MG1655 strain, Mueller–Hinton Broth, two independent experiments. In kind it is cell-based, Escherichia coli. As to the method:
as §1, §2, §3

For another data set, the system named is E. coli K12 strain. The data set is described as follows: Antibacterial activity in liquid medium. In kind it is cell-based, Escherichia coli. Particulars: for concentration with antimicrobial activity / effective concentration (text to Figure 4): E. coli K12, liquid medium, 15 h; for Peptide Efficacy in Liquid Medium after 15 h of Incubation: E. coli K12 strain, Mueller–Hinton Broth, two independent experiments. As to the method:
as §1, §2, §3

A further data set deals with BT474 cells. The settings on record: 100 µg/mL, both with and without pre-incubation, 96 h. As to the method:
To analyze the cytotoxic effect, cells after incubation with peptides were stained with calcein AM (stains living cells) and propidium iodide (stains dead cells).
Analysis of the cytostatic effect was performed on the basis of the distribution of cells by phases of the cell cycle and mitotic activity.
The peptides were pre-incubated for 12 h in DMEM medium without serum in a CO2 incubator. After the incubation period, serum was added to the medium to a final concentration of 10%, and the preparation was added dropwise onto the cells. The cytotoxic effects of peptides against eukaryotic cells (human fibroblasts and BT474) were subsequently assessed using the same method as in the previous study.

In the next data set the test system is S. aureus 209P strain. The data set is described as follows: Antibacterial activity in liquid medium. In kind it is cell-based, Staphylococcus aureus. The settings on record: for Peptide Efficacy in Liquid Medium after 15 h of Incubation: S. aureus 209P strain, Mueller–Hinton Broth, two independent experiments; for concentration at which inhibition of bacterial growth was observed (Figure 1): S. aureus 209P, liquid medium, 15 h, gentamicin positive control. As to the method: as §1, §2, §3

In a further data set the test system is S. aureus 129B strain. The data set is described as follows: Antibacterial activity in liquid medium. In kind it is cell-based, Staphylococcus aureus. Particulars: for Peptide Efficacy in Liquid Medium after 24 h of Incubation: S. aureus 129B strain (clinical isolate), Mueller–Hinton Broth, two independent experiments. The protocol: as §1, §2, §3
The next data set relates to MRSA ATCC 43300 strain. The data set is described as follows: Antibacterial activity in liquid medium. Format: cell-based, methicillin-resistant Staphylococcus aureus. The settings on record: for Peptide Efficacy in Liquid Medium after 15 h of Incubation: MRSA ATCC 43300 strain, Mueller–Hinton Broth, two independent experiments. As to the method:
as §1, §2, §3

In another data set the test system is MRSA SA 180-F strain. The data set is described as follows: Antibacterial activity in liquid medium. In kind it is cell-based, methicillin-resistant Staphylococcus aureus. The settings on record: MRSA SA 180-F strain (clinical isolate), Mueller–Hinton Broth, two independent experiments. The protocol:
as §1, §2, §3

The conditions of data set [2]: POPE:POPG bilayer; 0.1 M KCl, pH 7.4; subthreshold peptide concentrations (20 µg/mL). The source says:
The effects of peptide R44K^S on the ionic permeability of planar lipid bilayers composed of an equimolar mixture of POPE and POPG mimicking target bacterial cell membranes was examined. The example of the time dependence of the transmembrane current produced by a subsequent one-side addition of R44K^S into the bathing solution (0.1 M KCl, pH 7.4) is shown in Figure 7A.
The method of recording the transmembrane current under voltage-clamp conditions was used to study the effect of a synthetic peptide on a lipid membrane. Planar lipid bilayers were formed by the Montal and Mueller technique on an aperture of 50 µm diameter in a 10 µm thick Teflon film separating two compartments of Teflon chambers. Each compartment contained 0.1 M KCl and 10 mM HEPES at pH 7.4. Hexadecane was used for the aperture pretreatment. […]
Ag/AgCl electrodes with 1.5% agarose/2 M KCl bridges were used to apply the transmembrane voltage (V) and measure the current flowing through the bilayer (I). […] Data were digitized by a Digidata 1550A and analyzed using pClamp 10.7 (Molecular Devices, LLC, Orleans Drive, Sunnyvale, CA, USA) and Origin 7.0 (OriginLab Corporation, Northampton, MA, USA). […]

Another data set concerns B. cereus IP 5832 strain. The data set is described as follows: Antibacterial activity in liquid medium. In kind it is cell-based, Bacillus cereus. Particulars: Mueller–Hinton Broth, two independent experiments. The protocol:
as §1, §2, §3

In data set [3] the test system is S. aureus (strain 209P), MRSA (strain ATCC 43300), B. cereus (strain IP 5832), P. aeruginosa (strain ATCC 28753), and E. coli (strain K12). The data set is described as follows: Antimicrobial effect compared with gentamicin, panel of Figure 5. Format: cell-based. Particulars: Figure 5 panel; Mueller–Hinton Broth; 15 h; two independent experiments. As to the method:
The antibiotic gentamicin sulfate was used as a positive control. The concentration of gentamicin was 100 µM. Cell cultures in a liquid medium (Mueller–Hinton Broth) served as a negative control. Error bars show standard errors. Number of independent experiments is two. #—for significant differences with negative control p < 0.05.
as §2, §3

Method for human skin fibroblasts: The peptides were pre-incubated for 12 h in DMEM medium without serum in a CO2 incubator. After the incubation period, serum was added to the medium to a final concentration of 10%, and the preparation was added dropwise onto the cells. The cytotoxic effects of peptides against eukaryotic cells (human fibroblasts and BT474) were subsequently assessed using the same method as in the previous study [62].

Take “VVVHINGGKFGGGGSRQIKIWFQNRRMKWKK [V31K^S, commercial product]”: the “antimicrobial effect compared to the negative control (Figure 3)” value in [1] was “did not exhibit antimicrobial effects”. In addition, the “Peptide Efficacy in Liquid Medium after 24 h of Incubation” value is >276.8 µM, 2943 strain in data set [1]; >276.8 µM, MG1655 strain in the data set with E. coli MG1655 strain; >276.8 µM, 129B strain in the data set with S. aureus 129B strain; >276.8 µM, SA 180-F strain in the data set with MRSA SA 180-F strain. Moreover, the “Peptide Efficacy in Liquid Medium after 15 h of Incubation” value with P. aeruginosa ATCC 28753 is given as >12 µM, ATCC 28753; in the data set with E. coli K12 strain, >12 µM, K12 strain; in the data set on S. aureus 209P strain, >12 µM, 209P strain; in the data set with MRSA ATCC 43300 strain it was >12 µM, ATCC 43300 strain. Further, the “concentrations of peptides suppressing the growth of bacteria compared to the negative control (Figure 3)” value in the data set with P. aeruginosa ATCC 28753 turned out to be 6 µM. Moreover, the cytotoxic effect result in the data set with human skin fibroblasts (100 µg/mL) and in the data set with BT474 cells was “no cytotoxic effect” each time. Further, the “concentration with antimicrobial activity / effective concentration (text to Figure 4)” value with E. coli MG1655 strain is 276.8 µM; in the data set on E. coli K12 strain it was “did not exhibit antimicrobial activity”. Besides, the “concentration at which inhibition of bacterial growth was observed (Figure 1)” value with S. aureus 209P strain is on record as “not demonstrated”. In addition, the “complete inhibition of bacterial growth (Figure 1)” value in the data set with S. aureus 129B strain (S. aureus 129B, liquid medium, 24 h) was “not demonstrated”.

Turning to “RKKRRQRRRGGGGVVVHINGGKFGGGGSRQIKIWFQNRRMKWKK [R44K^S, Unmodified peptide: TAT fragment, amyloidogenic fragment and Antp fragment; commercial product]”, the single pore conductance in data set [2] was 10–30 pS. In addition, the “antimicrobial effect compared to the negative control (Figure 3)” value in data set [1] was “did not exhibit antimicrobial effects”. Also, the “Peptide Efficacy in Liquid Medium after 24 h of Incubation” value was >194.4 µM, 2943 strain in data set [1]; 194.4 µM with E. coli MG1655 strain; >194.4 µM, 129B strain in the data set on S. aureus 129B strain; >194.4 µM, SA 180-F strain in the data set on MRSA SA 180-F strain. Besides, the “Peptide Efficacy in Liquid Medium after 15 h of Incubation” value in the data set on P. aeruginosa ATCC 28753 is 3 µM; in the data set on E. coli K12 strain it was 6 µM; in the data set with S. aureus 209P strain it was 6 µM; with MRSA ATCC 43300 strain it was 12 µM. Besides, the “concentrations of peptides suppressing the growth of bacteria compared to the negative control (Figure 3)” value with P. aeruginosa ATCC 28753 worked out at 1.5 µM. Besides, in the data set on human skin fibroblasts (100 µg/mL), the cytotoxic effect result is “no cytotoxic effect”. For the same substance, the “concentration with antimicrobial activity / effective concentration (text to Figure 4)” value came out at 19.4 µM in the data set with E. coli MG1655 strain and 6 µM in the data set on E. coli K12 strain. Also, the “concentration at which inhibition of bacterial growth was observed (Figure 1)” value in the data set with S. aureus 209P strain was 6 to 12 µM. Moreover, the “concentration at which inhibitory effect / complete suppression of growth was observed (text to Figure 2)” value in the data set on MRSA ATCC 43300 strain (MRSA ATCC 43300, liquid medium, 15 h) amounted to 12 µM.

Regarding “RKKRRQRRRGG-Sar-GVVVHI-X-GGKF-NH2 [R23F^S*, Peptide with TAT fragment and modified amyloidogenic fragment of S. aureus S1 protein, C-terminal amide]”, the “Peptide Efficacy in Liquid Medium after 24 h of Incubation” value in data set [1] is given as 38 µM; in the data set with E. coli MG1655 strain, 379.8 µM; in the data set with S. aureus 129B strain, 379.8 µM; with MRSA SA 180-F strain it was 379.8 µM. The “Peptide Efficacy in Liquid Medium after 15 h of Incubation” value in the data set with P. aeruginosa ATCC 28753 is listed as 6 µM; with E. coli K12 strain, 3 µM; with S. aureus 209P strain, 6 µM; in the data set with B. cereus IP 5832 strain, 3 µM; in the data set on MRSA ATCC 43300 strain, 12 µM. The “number of dead cells” value is on record as 11 ± 3% in the data set on human skin fibroblasts (50 µg/mL) and 12 ± 3% in the data set on human skin fibroblasts (100 µg/mL). In addition, in [3], the “concentrations with antimicrobial effect comparable to gentamicin (100 μM) against all bacteria” value was in the range of 24 to 48 µM.
